Laboratory results as given in BindingDB's records for doi:10.1016/j.bmcl.2008.08.104 (Genomics Institute of The Novartis Research Foundation, 2008).

How the values were obtained:
[1] = Inhibition of TEL fused Lck-mediated proliferation of TEL-Lck transformed mouse BA/F3 cells after 48 hrs by bright-glo luciferase assay
[2] = Inhibition of TEL fused Src-mediated proliferation of TEL-Src transformed mouse BA/F3 cells after 48 hrs by bright-glo luciferase assay
[3] = Inhibition of TEL fused InsR-mediated proliferation of TEL-InsR transformed mouse BA/F3 cells after 48 hrs by bright-glo luciferase assay
[4] = Inhibition of TEL fused Lyn-mediated proliferation of TEL-Lyn transformed mouse BA/F3 cells after 48 hrs by bright-glo luciferase assay
[5] = Inhibition of TEL fused KDR-mediated proliferation of TEL-KDR transformed mouse BA/F3 cells after 48 hrs by bright-glo luciferase assay

Row | SMILES | IC50 [1] [nM] | further results
1 | Cc1cccc(Cl)c1Nc1nc2ccccc2n1-c1cc(NN2CCOCC2)ncn1 [N-(2-chloro-6-methylphenyl)-1-(6-(morpholinoamino)pyrimidin-4-yl)-1H-benzo[d]imidazol-2-amine] | > 10000 | –
2 | Cc1cccc(Cl)c1Nc1nc2ccccc2n1-c1cc(Nc2ccc(CCN3CCOCC3)cn2)ncn1 [N-(2-chloro-6-methylphenyl)-1-(6-(5-(2-morpholinoethyl)pyridin-2-ylamino)pyrimidin-4-yl)-1H-benzo[d]imidazol-2-amine] | – | IC50 [2]: 147 nM; IC50 [3]: 5160 nM; IC50 [4]: 215 nM; IC50 [5]: 1010 nM
3 | CCN(CC)CCCCNc1cc(-n2c(Nc3c(C)cccc3Cl)nc3ccccc32)ncn1 [N-(2-chloro-6-methylphenyl)-1-(6-(4-(diethylamino)butylamino)pyrimidin-4-yl)-1H-benzo[d]imidazol-2-amine] | 5040 | –
4 | Cc1cccc(Cl)c1Nc1nc2ccccc2n1-c1cc(Nc2cc(CN3CCOCC3)ccn2)ncn1 [N-(2-chloro-6-methylphenyl)-1-(6-(4-(morpholinomethyl)pyridin-2-ylamino)pyrimidin-4-yl)-1H-benzo[d]imidazol-2-amine] | 17 | –
5 | Cc1cc(C)c(Nc2nc3ccccc3n2-c2cc(N)ncn2)c(Br)c1 [1-(6-aminopyrimidin-4-yl)-N-(2-bromo-4,6-dimethylphenyl)-1H-benzo[d]imidazol-2-amine] | 1170 | –
6 | Cc1cccc(Cl)c1Nc1nc2ccccc2n1-c1cc(N2CCOCC2)ncn1 [N-(2-chloro-6-methylphenyl)-1-(6-morpholinopyrimidin-4-yl)-1H-benzo[d]imidazol-2-amine] | > 10000 | –
7 | Cc1cc(C)c(Nc2nc3ccccc3n2-c2cc(N)ncn2)c(C)c1 [1-(6-aminopyrimidin-4-yl)-N-mesityl-1H-benzo[d]imidazol-2-amine] | 583 | –
8 | Cc1cccc(Cl)c1Nc1nc2ccccc2n1-c1cc(Cl)ncn1 [N-(2-chloro-6-methylphenyl)-1-(6-chloropyrimidin-4-yl)-1H-benzo[d]imidazol-2-amine] | 5700 | –
9 | Cc1cccc(Cl)c1Nc1nc2ccccc2n1-c1cc(Nc2ncnc(NCCN3CCOCC3)c2C)ncn1 [N4-(6-(2-(2-chloro-6-methylphenylamino)-1H-benzo[d]imidazol-1-yl)pyrimidin-4-yl)-5-methyl-N6-(2-morpholinoethyl)pyrimidine-4,6-diamine] | 359 | –
10 | Cc1nc(Nc2cc(-n3c(Nc4c(C)cccc4Cl)nc4ccccc43)ncn2)cc(N2CCN(CCO)CC2)n1 [2-(4-(6-(6-(2-(2-chloro-6-methylphenylamino)-1H-benzo[d]imidazol-1-yl)pyrimidin-4-ylamino)-2-methylpyrimidin-4-yl)piperazin-1-yl)ethanol] | – | IC50 [2]: 5 nM; IC50 [3]: 2340 nM; IC50 [4]: 30 nM; IC50 [5]: 356 nM
